Laboratory results published in ChEMBL document CHEMBL4431301, “The Medicinal Chemistry of Dengue Virus” (J Med Chem, 2016).
Where a SMILES comes first, the peptide text is derived from it.

What was measured:
dengue virus type 2 [1] = assay: Antiviral activity against Dengue virus 2 infected in human HuH7 cells after 48 hrs by CFI assay; format: functional, organism-based; details: Huh-7, 48 h
[2] = Cytotoxicity against BHK21 cells assessed as cell viability after 48 hrs by Celltiter-Glo luminescent assay; format: cell-based, Mesocricetus auratus, BHK-21; details: hamster
[3] = Cytotoxicity against human HuH7 cells assessed as cell viability after 48 hrs by Celltiter-Glo luminescent assay; format: cell-based, Huh-7
[4] = target: Genome polyprotein (dengue virus type 2) (UniProt P29990); assay: Inhibition of the Dengue virus 2 NS2B-NS3 protease using Bz-nKRR-AMC as substrate at 300 uM preincubated for 15 mins followed by substrate addition measured after 30 mins by fluorescence assay
dengue virus type 2 [5] = assay: Antiviral activity against Dengue virus 2 NGC infected in BHK21 cells assessed as reduction in virus replication after 24 hrs by renilla luciferase reporter gene assay; format: functional, organism-based; details: BHK-21, 24 h
Genome polyprotein [6] = target: T1, Genome polyprotein (dengue virus type 2, UniProt P29990); assay: Inhibition of the Dengue virus 2 NS2B-NS3 protease expressed in Escherichia coli BL21(DE3)-RIPL cells using Pyr-RTKR-AMC as substrate preincubated for 30 mins followed by addition of substrate
[7] = Cytotoxicity against BHK21 cells assessed as cell viability after 24 hrs by ATP-Lite assay; format: cell-based, Mesocricetus auratus, BHK-21; details: hamster
dengue virus type 2 [8] = assay: Antiviral activity against Dengue virus 2 NGC infected in BHK21 cells assessed as reduction in viral titer after 3 days by RT-PCR method; format: functional, organism-based; details: BHK-21, 72 h
[9] = Inhibition of envelope protein mediated membrane fusion in Dengue virus TSV01 infected in mosquito C6/36 cells assessed as trypsin degradation after 1 hr by SDS-PAGE method; format: cell-based; details: TSV01, C6/36, 1 h
[10] = Cytotoxicity against BHK21 cells assessed as cell viability after 3 days by CellTiter Glo assay; format: cell-based, Mesocricetus auratus, BHK-21; details: hamster
[11] = Inhibition of envelope protein mediated membrane fusion in Dengue virus TSV01 infected in mosquito C6/36 cells after 1 hr by propidium iodide staining based fluorescence assay; format: cell-based; details: TSV01, C6/36, 1 h
dengue virus type 3 = assay: Antiviral activity against Dengue virus 3 infected in monkey LLC-MK2 cells assessed as reduction in viral infection at 2 to 5 uM by focus forming unit assay; format: functional; set-up: scale not given: the % may be the effect or the level left
dengue virus type 2 [12] = assay: Antiviral activity against Dengue virus 2 infected in monkey LLC-MK2 cells assessed as reduction in viral infection at 2 to 5 uM by focus forming unit assay; format: functional; set-up: scale not given: the % may be the effect or the level left
dengue virus type 4 = assay: Antiviral activity against Dengue virus 4 infected in monkey LLC-MK2 cells assessed as reduction in viral infection at 2 to 5 uM by focus forming unit assay; format: functional; set-up: scale not given: the % may be the effect or the level left
dengue virus type 1 = assay: Antiviral activity against Dengue virus 1 infected in monkey LLC-MK2 cells assessed as reduction in viral infection at 2 to 5 uM by focus forming unit assay; format: functional; set-up: scale not given: the % may be the effect or the level left
Genome polyprotein [13] = target: T1, Genome polyprotein; assay: Inhibition of recombinant Dengue virus 2 S-16803 NS2B-NS3 protease using Bz-nKRRAMC as substrate preincubated with enzyme followed by substrate addition measured after 20 mins by fluorescence assay
dengue virus type 2 [14] = assay: Antiviral activity against Dengue virus 2 NGC infected in african green monkey Vero cells preincubated with virus for 5 mins followed by cell infection for 5 mins by immunofluorescence analysis; format: functional, organism-based
[15] = target: T2, DEN4V NS2B-G4SG4NS3 serine protease (Dengue virus type 4, UniProt P09866); assay: Non-competitive inhibition of Dengue virus 4 NS3 helicase
[16] = target: T2, DEN4V NS2B-G4SG4NS3 serine protease; assay: Inhibition of Dengue virus 4 NS2B-NS3 protease expressed in Escherichia coli using Abz-RRRRSAG-nY-NH2 as substrate preincubated for 20 mins followed by addition of substrate measured after 60 mins by fluorescence assay
Genome polyprotein [17] = target: T1, Genome polyprotein; assay: Inhibition of Dengue virus 2 NS2B-NS3 protease expressed in Escherichia coli using Abz-RRRRSAG-nY-NH2 as substrate preincubated for 20 mins followed by addition of substrate measured after 60 mins by fluorescence assay
Genome polyprotein [18] = target: T1, Genome polyprotein; assay: Inhibition of Dengue virus 3 NS2B-NS3 protease expressed in Escherichia coli using Abz-RRRRSAG-nY-NH2 as substrate preincubated for 20 mins followed by addition of substrate measured after 60 mins by fluorescence assay; set-up: species or system dengue virus type 3
Genome polyprotein [19] = target: T1, Genome polyprotein; assay: Inhibition of Dengue virus 1 NS2B-NS3 protease expressed in Escherichia coli using Abz-RRRRSAG-nY-NH2 as substrate preincubated for 20 mins followed by addition of substrate measured after 60 mins by fluorescence assay; set-up: species or system dengue virus type 1

With `Cc1cc(N2CCN(C)CC2)ccc1NC(=O)c1c2c(nc3ccccc13)CCN(Cc1ccccc1)C2` the EC50 (dengue virus type 2 [1]) was 5 µM, the CC50 at 48 h [2] was over 300 µM and the CC50 at 48 h [3] was 55 µM. The inhibition [4] was 85%.

`Nc1cc(N)c(/N=N/c2ccc(S(=O)(=O)Nc3nccs3)cc2)cc1/N=N/c1ccc(S(=O)(=O)Nc2nccs2)cc1` showed an EC50 (dengue virus type 2 [5]) of 39.9 µM, an IC50 (Genome polyprotein [6]) of 2.75 µM and a CC50 at 24 h [7] of 213 µM.

`O=C(O)c1cc(=O)c2ccc(S[C@@H](/C=C/C=C\CCOc3ccc(Cl)c(Cl)c3)[C@H](O)c3cccc(C(F)(F)F)c3)cc2o1` gave an EC50 (dengue virus type 2 [8]) of 9.8 µM, an IC50 [9] of 6.8 µM and a CC50 at 72 h [10] of 48.7 µM. For the same compound, the IC50 [11] was 6.8 µM.

With `CC[C@H](C)[C@H](NC(=O)[C@H](C)NC(=O)CNC(=O)[C@H](Cc1ccccc1)NC(=O)[C@@H](NC(=O)[C@H](CCC(N)=O)NC(=O)[C@H](Cc1cnc[nH]1)NC(=O)[C@H](CC(C)C)NC(=O)[C@H](C)NC(=O)[C@H](CCCCN)NC(=O)CNC(=O)[C@@H](NC(=O)[C@H](CO)NC(=O)[C@@H](NC(=O)[C@H](Cc1ccccc1)NC(=O)[C@@H](NC(=O)CNC(=O)CNC(=O)[C@H](CC(C)C)NC(=O)[C@H](CO)NC(=O)CNC(=O)[C@H](Cc1ccccc1)NC(=O)[C@H](CC(=O)O)NC(=O)[C@H](Cc1c[nH]c2ccccc12)NC(=O)[C@H](C)NC(=O)[C@@H](NC(=O)[C@H](CC(=O)O)NC(=O)CNC(=O)[C@H](CC(C)C)NC(=O)[C@@H](NC(=O)[C@H](C)NC(=O)[C@@H](N)CCSC)[C@@H](C)CC)[C@@H](C)O)C(C)C)[C@@H](C)O)[C@@H](C)CC)C(C)C)C(=O)N[C@@H](Cc1ccc(O)cc1)C(=O)O` (H-MAILGDTAWDFGSLGGVFTSIGKALHQVFGAIY-OH) the Activity (dengue virus type 3) was 50%, the Activity (dengue virus type 2 [12]) was 50% and the Activity (dengue virus type 4) was 50%. It also gave an Activity (dengue virus type 1) of 50%.

`N#C/C(=C\c1ccc(-c2ccc(C(=O)O)cc2)s1)c1nc2cc(Cl)ccc2[nH]1` showed an IC50 (Genome polyprotein [13]) of 5.95 µM.

`Cc1ccc(C(=O)Nc2ccc(S(=O)(=O)O)c3cc(S(=O)(=O)O)cc(S(=O)(=O)O)c23)cc1NC(=O)c1cccc(NC(=O)Nc2cccc(C(=O)Nc3cc(C(=O)Nc4ccc(S(=O)(=O)O)c5cc(S(=O)(=O)O)cc(S(=O)(=O)O)c45)ccc3C)c2)c1` [SURAMIN] showed an EC50 (dengue virus type 2 [14]) of 40 µM and a Ki [15] of 0.75 µM.

`NC(=O)[C@H](Cc1c[nH]c2ccccc12)NC(=O)[C@H](CS)NC(=O)[C@H](Cc1ccc(O)cc1)NC(=O)[C@@H](N)Cc1c[nH]c2ccccc12` (H-WYCW-NH2) gave a Ki [16] of 11.2 µM, a Ki (Genome polyprotein [17]) of 4.8 µM and a Ki (Genome polyprotein [18]) of 24.4 µM. It also gave a Ki (Genome polyprotein [19]) of 4.2 µM.
